Experimental data from patent US10357576B2, “18F-labelled folate/antifolate analogues” (MERCK & CIE, priority 2012, dated 2019).

Tests used:
KB cells = test: In vitro cell uptake and internalization studies; assay type: cell-based, human; details: two hours of incubation, 37° C.
Method: Cell Culture: KB cells (human cervical carcinoma cell line, HeLa subclone; ACC-136) were purchased from the German Collection of Microorganisms and Cell Cultures (DSMZ, Braunschweig, Germany). The cells were cultured as monolayers at 37° C. in a humidified atmosphere containing 5% CO2. […] FFRPMI medium was supplemented with 10% heat-inactivated fetal calf serum (FCS, as the only source of folate), L-glutamine and antibiotics (penicillin/streptomycin/fungizone). Routine culture treatment was performed twice a week with EDTA (2.5 mmol/l) in PBS.
KB cells were seeded in 12-well plates to grow over night (˜700,000 cells in 2 ml FFRPMI medium/well). [^18F]-3′-aza-2′-fluorofolic acid ([…], 170 kBq) was added to each well. […] After incubation for 1 h or 2 h at 37° C. the cells were washed three times with PBS to determine total cell uptake of 3′-aza-2′-[^18F]fluorofolic acid. […] The cell suspensions were transferred to 4 ml tubes and the samples were counted in a −counter. After homogenization by vortex, the concentration of proteins was determined for each sample by a Micro BCA Protein Assay kit in order to standardize measured radioactivity to the average content of 0.3 mg protein in a single well. […]

KB tumor xenografts = test: Biodistribution studies in nude mice bearing KB tumor xenografts; assay type: in vivo, nude mice (CD-1 Foxn-1/nu)
Description: In vivo experiments were approved by the local veterinarian department and conducted in accordance to the Swiss law of animal protection. Six to eight-week-old female, athymic nude mice (CD-1 Foxn-1/nu) were purchased from Charles River Laboratories (Sulzfeld, Germany). The animals were fed with a folate-deficient rodent diet starting 5 days prior to the tumor cell inoculation. Mice were inoculated with KB cells (5×10^6 cells in […] PBS) into the subcutis of each shoulder. Animal experiments were performed approximately 14 days after tumor cell inoculation. Biodistribution studies were performed in triplicate. [^18F]-3′-aza-2′-fluorofolic acid was diluted in PBS pH 7.4 to the desired radioactivity concentration (˜5 MBq per mouse) for immediate administration via a lateral tail vein.
[…] Selected tissues and organs were collected, weighed, and counted for radioactivity in a −counter. The results were listed as percentage of the injected dose per gram of tissue weight [% ID/g], using reference counts from a definite sample of the original injectate that was counted at the same time.
The obtained are summarized in Table 2 and represent the percentage injected dose per gram tissue [% ID/g] averaged from three or four animals (Table 2).

[1] = 60 min p.i. blockade (100 μg folic acid 10 min before radiotracer)

Nc1nc2ncc(CNc3ccc(C(=O)N[C@@H](CCC(=O)O)C(=O)O)c([18F])n3)nc2c(=O)[nH]1 [3′-aza-2′-[^18F]fluorofolic acid]
Total cell uptake (KB cells): about 78.17%
Internalized fraction (KB cells; stripping buffer pH 3): 18.56%
% ID/g in Blood (KB tumor xenografts; 30 min p.i., i.v.): 1.2 ± 0.3 % ID/g
% ID/g in Bone (KB tumor xenografts; 30 min p.i., i.v.): 2.1 ± 0.3 % ID/g
% ID/g in Feces (KB tumor xenografts; 30 min p.i., i.v.): 1.2 ± 0.2 % ID/g
% ID/g in Gallbladder (KB tumor xenografts; 30 min p.i., i.v.): 8.1 ± 2.9 % ID/g
% ID/g in Heart (KB tumor xenografts; 30 min p.i., i.v.): 2.1 ± 0.2 % ID/g
% ID/g in Intestine (KB tumor xenografts; 30 min p.i., i.v.): 1.4 ± 0.1 % ID/g
% ID/g in Kidneys (KB tumor xenografts; 30 min p.i., i.v.): 54.8 ± 6.1 % ID/g
% ID/g in Liver (KB tumor xenografts; 30 min p.i., i.v.): 13.7 ± 2.9 % ID/g
% ID/g in Lungs (KB tumor xenografts; 30 min p.i., i.v.): 2.0 ± 0.3 % ID/g
% ID/g in Muscle (KB tumor xenografts; 30 min p.i., i.v.): 1.7 ± 0.4 % ID/g
% ID/g in Salivary glands (KB tumor xenografts; 30 min p.i., i.v.): 9.0 ± 1.3 % ID/g
% ID/g in Spleen (KB tumor xenografts; 30 min p.i., i.v.): 1.3 ± 0.2 % ID/g
% ID/g in Stomach (KB tumor xenografts; 30 min p.i., i.v.): 2.8 ± 0.5 % ID/g
% ID/g in Tumor (KB tumor xenografts; 30 min p.i., i.v.): 11.7 ± 0.9 % ID/g
Ratio Tumor/Blood (KB tumor xenografts; 30 min p.i., i.v.): 11.1 ± 4.1
Ratio Tumor/Kidneys (KB tumor xenografts; 30 min p.i., i.v.): 0.2 ± 0.1
Ratio Tumor/Liver (KB tumor xenografts; 30 min p.i., i.v.): 0.9 ± 0.2
% ID/g in Blood (KB tumor xenografts; [1]): 0.8 ± 0.3 % ID/g
% ID/g in Bone (KB tumor xenografts; [1]): 0.6 ± 0.3 % ID/g
% ID/g in Feces (KB tumor xenografts; [1]): 6.0 ± 1.1 % ID/g
% ID/g in Gallbladder (KB tumor xenografts; [1]): 15.8 ± 9.3 % ID/g
% ID/g in Heart (KB tumor xenografts; [1]): 0.4 ± 0.2 % ID/g
% ID/g in Intestine (KB tumor xenografts; [1]): 1.3 ± 0.6 % ID/g
% ID/g in Kidneys (KB tumor xenografts; [1]): 5.9 ± 4.5 % ID/g
% ID/g in Liver (KB tumor xenografts; [1]): 10.9 ± 3.4 % ID/g
% ID/g in Lungs (KB tumor xenografts; [1]): 0.7 ± 0.3 % ID/g
% ID/g in Muscle (KB tumor xenografts; [1]): 0.3 ± 0.1 % ID/g
% ID/g in Salivary glands (KB tumor xenografts; [1]): 0.6 ± 0.2 % ID/g
% ID/g in Spleen (KB tumor xenografts; [1]): 0.4 ± 0.2 % ID/g
% ID/g in Stomach (KB tumor xenografts; [1]): 0.6 ± 0.3 % ID/g
% ID/g in Tumor (KB tumor xenografts; [1]): 1.7 ± 0.4 % ID/g
Ratio Tumor/Blood (KB tumor xenografts; [1]): 2.2 ± 0.3
Ratio Tumor/Kidneys (KB tumor xenografts; [1]): 0.4 ± 0.2
Ratio Tumor/Liver (KB tumor xenografts; [1]): 0.2 ± 0.1
% ID/g in Blood (KB tumor xenografts; 60 min p.i., i.v.): 0.6 ± 0.1 % ID/g
% ID/g in Bone (KB tumor xenografts; 60 min p.i., i.v.): 1.6 ± 0.3 % ID/g
% ID/g in Feces (KB tumor xenografts; 60 min p.i., i.v.): 3.0 ± 2.0 % ID/g
% ID/g in Gallbladder (KB tumor xenografts; 60 min p.i., i.v.): 8.4 ± 1.8 % ID/g
% ID/g in Heart (KB tumor xenografts; 60 min p.i., i.v.): 1.9 ± 0.3 % ID/g
% ID/g in Intestine (KB tumor xenografts; 60 min p.i., i.v.): 1.9 ± 0.2 % ID/g
% ID/g in Kidneys (KB tumor xenografts; 60 min p.i., i.v.): 53.6 ± 3.2 % ID/g
% ID/g in Liver (KB tumor xenografts; 60 min p.i., i.v.): 10.6 ± 0.9 % ID/g
% ID/g in Lungs (KB tumor xenografts; 60 min p.i., i.v.): 1.5 ± 0.2 % ID/g
% ID/g in Muscle (KB tumor xenografts; 60 min p.i., i.v.): 1.2 ± 0.2 % ID/g
% ID/g in Salivary glands (KB tumor xenografts; 60 min p.i., i.v.): 15.0 ± 6.1 % ID/g
% ID/g in Spleen (KB tumor xenografts; 60 min p.i., i.v.): 1.9 ± 0.1 % ID/g
% ID/g in Stomach (KB tumor xenografts; 60 min p.i., i.v.): 2.8 ± 0.9 % ID/g
% ID/g in Tumor (KB tumor xenografts; 60 min p.i., i.v.): 11.9 ± 1.7 % ID/g
Ratio Tumor/Blood (KB tumor xenografts; 60 min p.i., i.v.): 21.6 ± 2.3
Ratio Tumor/Kidneys (KB tumor xenografts; 60 min p.i., i.v.): 0.2 ± 0.1
Ratio Tumor/Liver (KB tumor xenografts; 60 min p.i., i.v.): 1.1 ± 0.2
% ID/g in Blood (KB tumor xenografts; 90 min p.i., i.v.): 0.6 ± 0.1 % ID/g
% ID/g in Bone (KB tumor xenografts; 90 min p.i., i.v.): 1.6 ± 0.3 % ID/g
% ID/g in Feces (KB tumor xenografts; 90 min p.i., i.v.): 1.8 ± 0.3 % ID/g
% ID/g in Gallbladder (KB tumor xenografts; 90 min p.i., i.v.): 9.3 ± 0.6 % ID/g
% ID/g in Heart (KB tumor xenografts; 90 min p.i., i.v.): 1.8 ± 0.1 % ID/g
% ID/g in Intestine (KB tumor xenografts; 90 min p.i., i.v.): 2.3 ± 0.4 % ID/g
% ID/g in Kidneys (KB tumor xenografts; 90 min p.i., i.v.): 57.3 ± 8.4 % ID/g
% ID/g in Liver (KB tumor xenografts; 90 min p.i., i.v.): 10.3 ± 2.4 % ID/g
% ID/g in Lungs (KB tumor xenografts; 90 min p.i., i.v.): 1.6 ± 0.3 % ID/g
% ID/g in Muscle (KB tumor xenografts; 90 min p.i., i.v.): 1.5 ± 0.4 % ID/g
% ID/g in Salivary glands (KB tumor xenografts; 90 min p.i., i.v.): 14.1 ± 0.9 % ID/g
% ID/g in Spleen (KB tumor xenografts; 90 min p.i., i.v.): 2.2 ± 0.2 % ID/g
% ID/g in Stomach (KB tumor xenografts; 90 min p.i., i.v.): 2.7 ± 0.1 % ID/g
% ID/g in Tumor (KB tumor xenografts; 90 min p.i., i.v.): 12.6 ± 1.8 % ID/g
Ratio Tumor/Blood (KB tumor xenografts; 90 min p.i., i.v.): 23.8 ± 4.1
Ratio Tumor/Kidneys (KB tumor xenografts; 90 min p.i., i.v.): 0.2 ± 0.1
Ratio Tumor/Liver (KB tumor xenografts; 90 min p.i., i.v.): 1.3 ± 0.4
